{"source": "patent US9878984B2", "about": "“Anti-cancer compounds” (NORTHWESTERN UNIVERSITY, priority 2008, dated 2018)", "test_system": "HeLa, PC-3M, and MDA-MB-231", "assay": "MTS growth inhibition assay, human cancer cell lines", "assay_type": "cell-based", "settings": "72 hr, MTS proliferation assay", "procedure": "Cell Culture: HeLa (cervical carcinoma), WI-38 (normal human […] fibroblasts), and MDA-MB-231 (breast carcinoma), cells were cultured in DMEM (Invitrogen—Carlsbad, Calif.) and PC-3M (metastatic prostate carcinoma) cells were cultured in RPMI-1640. Peripheral blood mononuclear cells (PBMCs) were voluntarily collected from a healthy laboratory worker by standard sterile phlebotomy techniques and isolated using Vacutainer CPT collection tubes (BD Biosciences—Bedford, Mass.). PBMCs were isolated freshly for each experiment. All DMEM and RPMI-1640 media was supplemented with 10% FBS (Atlanta Biologicals—Lawrenceville, Ga.) and 100 U/mL penicillin and streptomycin (Invitrogen). […]\nGrowth Inhibition Assays: HeLa, MDA-MB-231, PC-3M, WI-38, and HUVEC cells were plated at 5,000 cells per well in 96 well plates and allowed to attach for 20 hr (8 hr for HeLa). […] Cell proliferation was measured at t=0 (time at start of treatment) and t=72 hr using MTS AQueous non-radioactive proliferation assay (Promega—Madison, Wis.). […] The absorbance at 490 nm in each well was read with a Spectramax 250 plate reader (Molecular Devices—Sunnyvale, Calif.). […] Data were fit to one site dose response curves in order to obtain specific growth inhibitory concentrations and the relative standard errors of the mean for these concentrations were calculated by the XLfit4 software. […]", "data": [{"smiles": "CN(C)CCN1C(=O)c2cccc3c(N)ccc(c23)C1=O", "note": "[A1, 6-amino-2-[2-(dimethylamino)ethyl]-1H-benz[de]isoquinoline-1,3(2H)-dione]", "values": [{"measurement": "growth inhibition potency", "result": "near identical to amonafide"}]}]}
